In US10478436B2, “Application of 5-HT6 receptor antagonists for the alleviation of cognitive deficits of down syndrome” (The University of Utah Research Foundation, priority 2011, dated 2019):
“Also recorded” adds a separate entry of the source.

Tests used:
[1] = Hirst et al. (2006); cited from earlier work
control mice = experiment: Exploratory paradigm: ability to recognize a novel object in a novel location (discrimination ratio), control littermates; assay type: in vivo, mouse; settings: 3.0 mg/kg i.p.
Experimental: (§1) Male Ts65Dn/DnJ mice and male littermates were obtained from a commercial supplier (Jackson Laboratory, Bar Harbor, Me.), and tested at approximately 12-32 weeks of age, at a weight of 25-30 grams. Animals were kept on a 12 hour light/dark cycle and experimentation was conducted during the light portion of the cycle. Animals had unlimited access to food and water. All animals used were housed individually to limit the interference of social interaction on cognitive test performance. Animal care and experimental testing procedures conformed to NIH, IACUC, and AALAC standards and protocols.
(§2) Ts65Dn are compared to their control littermates for the effects of excipients and compounds in altering the performance and rescue of deficits in the Ts65Dn DS mouse model.
The apparatus for these experiments consisted of a 40 cm×40 cm Plexiglas box with clear walls and a dark grey floor. The box was placed on a circular white table 1 m in diameter. […]
The experimental paradigms utilized the inherent tendency of rodents to differentially explore novel stimuli over familiar stimuli. […] Exploration was recorded with an overhead video camera and the duration of exploration was measured with a stopwatch. […]
The duration of exploration of the Novel and Familiar stimuli during the Test Phase was individually measured with stopwatches, rounding to the 0.5 second. […]

Ts65Dn mice = experiment: Exploratory paradigm: ability to recognize a novel object in a novel location (discrimination ratio), Ts65Dn Down syndrome mice; assay type: in vivo, mouse; settings: for cognition (discrimination ratio) compared to treatment with vehicle alone: Ts65Dn mice; for cognition (discrimination ratio) compared to treatment with vehicle alone / cognitive performance (discrimination ratio) compared to no treatment / vehicle alone: 10 mg/kg i.p.; for cognitive performance (discrimination ratio) compared to no treatment / vehicle alone: 9-month-old Ts65Dn mice
Experimental: as §1, with “Male Ts65Dn/DnJ mice and male littermates were obtained from a commercial supplier (Jackson Laboratory, Bar Harbor, Me.), and tested at approximately 12-32 weeks of age, at a weight of 25-30 grams.” left out
as §2
The apparatus for these experiments consisted of a 40 cm×40 cm Plexiglas box with clear walls and a dark grey floor. The box was placed on a circular white table 1 m in diameter. Four distinct, approximately 20 cm×20 cm black and white shapes were placed 30 cm away from the midpoint of each side of the box. Objects were made from various washable, non-porous materials (plastic, metal, glass, etc.), 2-7 cm in height and varied in color, pattern and texture. To prevent odor cues, all apparatus and objects were disinfected and deodorized with HDQ after each use.
The experimental paradigms utilized the inherent tendency of rodents to differentially explore novel stimuli over familiar stimuli. Exploration was defined as any investigative behavior where mice have active and direct contact with an object. Such behaviors included head orientation and sniffing within <1.0 cm of the object, pawing, biting, or crawling over the objects. Exploration was recorded with an overhead video camera and the duration of exploration was measured with a stopwatch. The week prior to testing, all animals were handled in daily sessions and given an opportunity to habituate to the clear or red apparatus. Each experimental session presented the animal with new object sets and tests were separated by a minimum 48 hour interval. It should be noted that order effects are not normally observed in exploration tasks. Each test consisted of a Habituation Phase, during which mice display reduced exploration over time as a function of habituation, and a Test Phase on novelty detection that is interpreted to reflect recognition memory.
For each of the 7 compounds 1-7, the compound was administered to Ts65Dn mice via i.p. injection at a concentration of 3.0 mg/kg (compound 1) or 10 mg/kg (compounds 2, 3, 4, 5, 6, and 7) body weight delivered in a vehicle of methyl cellulose+0.2% tween 80 solution, while additional Ts65Dn mice were administered with vehicle alone. Each animal received a volume (ml) of drug in vehicle equal to 1% of its body weight (g) or an equal volume of vehicle alone. Forty minutes after the compound is injected, the Habituation phase begins. Therefore, the Test phase occurs 60 minutes after administration of the drug.
For each experiment the animal was placed in center of the clear acrylic box and presented with two different objects spaced 15 cm apart for 15 minutes of free explorations of the apparatus, stimulus objects, and distal environmental cues (Habituation Phase). After the Habituation Phase, a black container was placed over the mouse for a 5-minute Delay. During this delay, one object was exchanged with a new, unfamiliar object in a novel location (novel object), while the other object is replaced with an identical object in the same location (familiar object). Following the delay the black container was removed, beginning the Test Phase and the mouse is allowed to re-explore for 5 minutes (Test Phase).
The duration of exploration of the Novel and Familiar stimuli during the Test Phase was individually measured with stopwatches, rounding to the 0.5 second. […] A zero score would reflect no preference for either the novel or familiar object. A positive score reflects a preference for exploration of the novel object, and is associated with the animal's level of hippocampal function and memory or cognition. […]

[2] = tested on: scopolamine-induced memory deficits; settings: Mitchell and Neumaier (2008); cited from earlier work
mouse 5-HT6 receptor = mouse 5-HT6 receptor (Mus musculus, UniProt Q9R1C8); settings: cited from earlier work
rat 5-HT6 receptor = rat 5-HT6 receptor (Rattus norvegicus, UniProt P31388); settings: cited from earlier work
[3] = molecular target: human recombinant and native 5-HT6 receptors (Homo sapiens, UniProt P50406); settings: cited from earlier work
5-HT6 receptor [4] = molecular target: T1, 5-HT6 receptor (Homo sapiens, UniProt P50406); settings: Arnt et al. (2010); cited from earlier work
5-HT6 receptor [5] = molecular target: T1, 5-HT6 receptor; settings: cited from earlier work
18 other receptors = settings: concentration of 10 μM; cited from earlier work
[6] = Test phase 60 minutes after administration

T1 sequence (P50406 whole entry): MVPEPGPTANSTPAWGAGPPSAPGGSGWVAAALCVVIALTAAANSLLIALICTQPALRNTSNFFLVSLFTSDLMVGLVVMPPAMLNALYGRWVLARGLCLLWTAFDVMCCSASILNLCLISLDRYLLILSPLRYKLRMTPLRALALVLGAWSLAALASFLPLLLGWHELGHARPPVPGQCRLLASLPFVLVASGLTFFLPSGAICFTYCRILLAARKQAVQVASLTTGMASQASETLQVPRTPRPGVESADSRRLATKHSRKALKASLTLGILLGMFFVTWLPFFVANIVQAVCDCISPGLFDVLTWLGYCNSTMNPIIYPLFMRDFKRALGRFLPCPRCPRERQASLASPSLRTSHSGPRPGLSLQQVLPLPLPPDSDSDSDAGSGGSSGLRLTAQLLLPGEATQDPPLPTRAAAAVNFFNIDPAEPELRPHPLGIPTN
Sequence of mouse 5-HT6 receptor (Q9R1C8 whole entry): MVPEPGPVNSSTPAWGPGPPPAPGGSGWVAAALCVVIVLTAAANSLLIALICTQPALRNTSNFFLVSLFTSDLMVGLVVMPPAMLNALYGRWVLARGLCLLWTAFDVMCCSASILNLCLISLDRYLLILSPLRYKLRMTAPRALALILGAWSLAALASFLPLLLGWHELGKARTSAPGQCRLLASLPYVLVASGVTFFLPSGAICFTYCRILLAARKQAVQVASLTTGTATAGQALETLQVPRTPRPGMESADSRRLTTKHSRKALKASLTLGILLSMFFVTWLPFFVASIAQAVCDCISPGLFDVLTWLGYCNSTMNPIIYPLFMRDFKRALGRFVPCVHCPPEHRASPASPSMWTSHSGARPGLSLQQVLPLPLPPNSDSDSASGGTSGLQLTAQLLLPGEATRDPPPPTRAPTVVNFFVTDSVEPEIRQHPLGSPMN
Sequence of human recombinant and native 5-HT6 receptors (P50406 whole entry): as the sequence (P50406 whole entry) above
Sequence of rat 5-HT6 receptor (P31388 whole entry): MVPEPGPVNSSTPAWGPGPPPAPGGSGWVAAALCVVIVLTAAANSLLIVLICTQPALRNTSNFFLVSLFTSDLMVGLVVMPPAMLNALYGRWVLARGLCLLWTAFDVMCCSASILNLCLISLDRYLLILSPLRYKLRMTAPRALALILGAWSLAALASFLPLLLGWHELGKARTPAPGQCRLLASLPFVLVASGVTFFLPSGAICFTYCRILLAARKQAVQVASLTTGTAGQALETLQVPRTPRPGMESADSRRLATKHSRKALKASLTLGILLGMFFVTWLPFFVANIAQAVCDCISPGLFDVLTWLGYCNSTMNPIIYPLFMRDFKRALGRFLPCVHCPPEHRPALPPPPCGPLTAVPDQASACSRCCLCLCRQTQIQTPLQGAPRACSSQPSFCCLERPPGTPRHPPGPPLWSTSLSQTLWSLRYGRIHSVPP

Structure (SMILES): COc1ccc(S(=O)(=O)Nc2cc(Cl)cc(Cl)c2OC)cc1N1CCNCC1 [compound 1, N-(3,5-dichloro-2-methoxyphenyl)-4-methoxy-3-(piperazin-1-yl)benzenesulfonamide]
- brain penetration [1]: brain penetrant
- oral activity [1]: orally active
- mean discrimination ratio, compound+vehicle vs. vehicle alone (control mice): did not respond differently
- mean discrimination ratio compared to no treatment or treatment with vehicle alone (Ts65Dn mice; 3 to 4 month-old Ts65Dn mice, 3.0 mg/kg i.p., Test phase 60 minutes after administration): significant increase
- discrimination ratio compared to no treatment or treatment with vehicle alone (Ts65Dn mice; 8-month-old Ts65Dn mice, 3.0 mg/kg i.p.): significantly increased
- persistence of the treatment effect on mean discrimination ratio (Ts65Dn mice; 8-month-old Ts65Dn mice, tested two weeks after the treatment experiments): did not last

Structure (SMILES): COc1ccc2[nH]c(-c3ccccc3)c(CCN(C)C)c2c1 [compound 2, 2-(5-methoxy-2-phenyl-1H-indol-3-yl)-N,N-dimethylethanamine]
- cognition (discrimination ratio) compared to treatment with vehicle alone (Ts65Dn mice; [6]): significantly improves
- effect on scopolamine-induced memory deficits [2]: reverse

Structure (SMILES): O=S(=O)(c1cccc2ccccc12)n1ccc2ccc(N3CCN4CCCC4C3)cc21 (stereo not shown) [compound 3, 2-(1-(naphthalen-1-ylsulfonyl)-1H-indol-6-yl)octahydropyrrolo[1,2-a]pyrazine]
- cognition (discrimination ratio) compared to treatment with vehicle alone (Ts65Dn mice; [6]): significantly increased

Structure (SMILES): CN1CCC(c2cn(C)c3ccc(OS(=O)(=O)c4c(F)cccc4F)cc23)CC1 [compound 4, 1-methyl-3-(1-methylpiperidin-4-yl)-1H-indol-5-yl 2,6-difluorobenzenesulfonate]
- cognition (discrimination ratio) compared to treatment with vehicle alone (Ts65Dn mice; [6]): trend to increased discrimination ratios

Structure (SMILES): CNc1cc(NS(=O)(=O)c2ccc(N)cc2)nc(NC)n1 [compound 5, 4-amino-N-(2,6-bis(methylamino)pyrimidin-4-yl)benzenesulfonamide]
- cognition (discrimination ratio) compared to treatment with vehicle alone (Ts65Dn mice; Test phase 60 minutes after administration, 10 mg/kg): does not restore cognition; also recorded: does not improve cognition; also recorded: lack of response; also recorded: did not alter the cognitive abilities
- binding to the mouse 5-HT6 receptor (mouse 5-HT6 receptor): does not bind; also recorded: does not recognize
- recognition of the rat 5-HT6 receptor (rat 5-HT6 receptor): recognizes the rat
- binding to the human 5-HT6 receptor [3]: binds the human

Structure (SMILES): Fc1ccc2c(CCNCc3cccc(OCC(F)(F)C(F)F)c3)c[nH]c2c1 [compound 6, 2-(6-fluoro-1H-indol-3-yl)-N-(3-(2,2,3,3-tetrafluoropropoxyl)benzyl)ethanamine]
- 5-HT6 receptor agonist activity (5-HT6 receptor [4]): no agonist activity
- cognitive performance (discrimination ratio) compared to no treatment / vehicle alone (Ts65Dn mice): significant increase

Structure (SMILES): O=S(=O)(c1ccccc1)c1cnc2c(N3CCNCC3)cccc2c1 [compound 7, 3-(phenylsulfonyl)-8-(piperazin-1-yl)quinoline]
- cognitive performance (discrimination ratio) compared to no treatment / vehicle alone (Ts65Dn mice): significantly improves

Structure (SMILES): Cc1ccc2c(c1)c1c(n2CCc2ccc(C)nc2)CCN(C)C1 [dimebolin]
- ability to bind as 5-HT6 receptor antagonist (5-HT6 receptor [5]): approximately 20 times weaker
- inhibition of 18 other receptors (18 other receptors): 50%
